Reference: US20080249186A1, “Fungicidal Composition” (GIVAUDAN SA, priority 2005, published 2008)

Experiments:
Fusarium oxysporum = experiment: Checkerboard titration / MIC determination in microtiter plates (turbidity, fungal growth); assay type: cell-based; settings: agent alone; percent by weight
Description: (§1) A test system was set up with two of most common soil inhabitating plant pathogenic fungi causing high losses in green houses: Fusarium oxysporum, and Rhizoctonia solani. Garlic oil was used as the source of allyl sulphides.
(§2) The synergistic action between this oil and eugenol or thymol was tested in Checkerboard titration experiments. The ‘checkerboard’ is the inhibitory pattern found for multiple combinations of two antimicrobial agents in concentrations equal to, above, and below their minimal inhibitory concentration for the organism being tested. These multiple combinations of antimicrobial agents are prepared in microtiter plates. The checkerboard consists then of columns which contain the same amount of one antimicrobial which is diluted along the x-axis and rows which each contain the same amount of the other antimicrobial (diluted along the y-axis). Thus, each well of the microtiter plate is a unique combination of the two agents.
(§3) A method of quantitating synergy is the ‘fractional inhibitory concentration’ (FIC) index. For each row, the FIC index is calculated from the lowest concentration of agents necessary to inhibit growth. The FIC of each agent is derived by dividing the concentration of the agent present in that well of the microtiter plate by the minimal inhibitory concentration (MIC) needed of that agent alone to inhibit the organism. The FIC index is then the sum of these values for both antibacterial agents in that well of the microtiter plate. Fractional inhibitory concentration indices are then used as measure of synergy. The FIC index is calculated for each row as follows:
(§4) where MICa, MICb are the minimal inhibitory concentration (MIC) of compound A and B in the mixture, and MICA, MICB are the MIC of A and B when used alone. When the lowest FIC index obtained in a microtiter plate in this way is less than 1, the combination is synergistic. When the FIC index is 1, the combination is additive.
(§5) All examples were made using routine techniques for MIC determination. The dilutions of the active agents were prepared in dimethylsulfoxide, and 2 μl aliquots of the different stock solutions of each of the two agents were then added to individual wells of the microtiter plates to obtain the desired checkerboard as described above. Fungi were swabbed from agar plates and suspended in 10 ml of Sabouraud liquid medium. The fungal suspensions was diluted 20 fold in the same growth medium. To each well of the microtiter plates 100 μl of such a diluted suspension of the test organism was distributed. The plates were covered with plastic films and incubated for 48 h at 30° C. with shaking at 250 rpm. The turbidity was then measured with a microplate reader to determine fungal growth. […]

Rhizoctonia solani = experiment: as above; assay type: cell-based; settings: agent alone; percent by weight
Description: as §1, §2, §3, §4, §5

MIC of pure compounds, F. oxysporum (Fusarium oxysporum) [%]	MIC of pure compounds, R. solani (Rhizoctonia solani) [%]	SMILES
0.05	0.025	C=CCc1ccc(O)c(OC)c1 [eugenol, 4-hydroxy-3-methoxy-1-allylbenzene]
0.05	0.0125	Cc1ccc(C(C)C)c(O)c1 [thymol, 1-methyl-3-hydroxy-4-iso-propylbenzene]
